From patent publication EP4813989A1, “CRYSTAL, PHARMACEUTICAL COMPOSITION, PREPARATION METHOD THEREFOR, AND USE THEREOF” (TYK Medicines, Inc., priority 2023, dated 2025)

What was measured:
[1] = High-temperature test, related substances by HPLC; format: physicochemical; details: for Increase of impurity RRT0.66 content / Increase of impurity RRT1.02 content / Increase of impurity RRT1.08 content / Increase of total impurities / Impurity content RRT0.55 / Impurity content RRT0.66 / Impurity content RRT0.71 / Impurity content RRT0.94 / Impurity content RRT1.02 / Impurity content RRT1.06 / Impurity content RRT1.08 / Impurity content RRT1.15 / Total impurities: 50°C±2°C; for Impurity content RRT0.55 / Impurity content RRT0.66 / Impurity content RRT0.71 / Impurity content RRT0.94 / Impurity content RRT1.02 / Impurity content RRT1.06 / Impurity content RRT1.08 / Impurity content RRT1.15 / Total impurities: open
Description: An investigation method for the high-temperature test can be seen in Table 11 below.
Results of related substances in each crystal form under the high-temperature condition (50°C±2°C) can be seen in Table 15.
HPLC detection results of related substances under the high-temperature condition: Table 15

[2] = Approximate solubility in organic solvents at room temperature; format: physicochemical

SMILES: C[C@@H](Nc1ccn2ncc(C3=NOC(C)(C)N3)c2n1)c1cc(F)cc(F)c1F [crystal form A]
- Increase of impurity RRT0.66 content ([1]; 32 days): ≤ 0.02%
- Increase of impurity RRT1.02 content ([1]; 32 days): no obvious change
- Increase of impurity RRT1.08 content ([1]; 32 days): 0.05%
- Increase of total impurities ([1]; 32 days): 0.16%
- Impurity content RRT0.55 ([1]; 0 day): 0.03%
- Impurity content RRT0.66 ([1]; 0 day): 0.18%
- Impurity content RRT0.71 ([1]; 0 day): 0.15%
- Impurity content RRT0.94 ([1]; 0 day): 0.04%
- Impurity content RRT1.02 ([1]; 0 day): 0.28%
- Impurity content RRT1.06 ([1]; 0 day): 0.07%
- Impurity content RRT1.08 ([1]; 0 day): 0.16%
- Impurity content RRT1.15 ([1]; 0 day): 0.03%
- Total impurities ([1]; 0 day): 0.95%
- Impurity content RRT0.55 ([1]; 5 days): 0.03%
- Impurity content RRT0.66 ([1]; 5 days): 0.19%
- Impurity content RRT0.71 ([1]; 5 days): 0.16%
- Impurity content RRT0.94 ([1]; 5 days): 0.04%
- Impurity content RRT1.02 ([1]; 5 days): 0.31%
- Impurity content RRT1.06 ([1]; 5 days): 0.08%
- Impurity content RRT1.08 ([1]; 5 days): 0.19%
- Impurity content RRT1.15 ([1]; 5 days): 0.03%
- Total impurities ([1]; 5 days): 1.03%
- Impurity content RRT0.55 ([1]; 11 days): 0.03%
- Impurity content RRT0.66 ([1]; 11 days): 0.19%
- Impurity content RRT0.71 ([1]; 11 days): 0.16%
- Impurity content RRT0.94 ([1]; 11 days): 0.03%
- Impurity content RRT1.02 ([1]; 11 days): 0.30%
- Impurity content RRT1.06 ([1]; 11 days): 0.08%
- Impurity content RRT1.08 ([1]; 11 days): 0.22%
- Impurity content RRT1.15 ([1]; 11 days): 0.03%
- Total impurities ([1]; 11 days): 1.04%
- Impurity content RRT0.55 ([1]; 32 days): 0.05%
- Impurity content RRT0.66 ([1]; 32 days): 0.20%
- Impurity content RRT0.71 ([1]; 32 days): 0.17%
- Impurity content RRT0.94 ([1]; 32 days): 0.05%
- Impurity content RRT1.02 ([1]; 32 days): 0.30%
- Impurity content RRT1.06 ([1]; 32 days): 0.08%
- Impurity content RRT1.08 ([1]; 32 days): 0.21%
- Impurity content RRT1.15 ([1]; 32 days): 0.05%
- Total impurities ([1]; 32 days): 1.11%
- Overall stability (conclusion) ([1]; compared with crystal form E and amorphous form, all four stress tests): the most stable crystal form
- solubility ([2]; Acetone): > 40 mg/mL
- solubility ([2]; Acetonitrile): > 44 mg/mL
- solubility ([2]; Dichloromethane): > 40 mg/mL
- solubility ([2]; Ethanol): > 38 mg/mL
- solubility ([2]; Ethyl acetate): > 44 mg/mL
- solubility ([2]; Isopropanol): > 42 mg/mL
- solubility ([2]; Isopropyl acetate): > 38 mg/mL
- solubility ([2]; Methanol): > 36 mg/mL
- solubility ([2]; Methyl isobutyl ketone): > 40 mg/mL
- solubility ([2]; Trichloromethane): > 44 mg/mL

SMILES: C[C@@H](Nc1ccn2ncc(C3=NOC(C)(C)N3)c2n1)c1cc(F)cc(F)c1F [crystal form E]
- Increase of impurity RRT0.66 content ([1]; 32 days): 0.05%
- Increase of impurity RRT1.02 content ([1]; 32 days): 0.19%
- Increase of impurity RRT1.08 content ([1]; 32 days): 0.23%
- Increase of total impurities ([1]; 32 days): 0.51%
- Impurity content RRT0.55 ([1]; 0 day): 0.04%
- Impurity content RRT0.66 ([1]; 0 day): 0.21%
- Impurity content RRT0.71 ([1]; 0 day): 0.14%
- Impurity content RRT0.94 ([1]; 0 day): 0.03%
- Impurity content RRT1.02 ([1]; 0 day): 0.21%
- Impurity content RRT1.06 ([1]; 0 day): 0.07%
- Impurity content RRT1.08 ([1]; 0 day): 0.17%
- Impurity content RRT1.15 ([1]; 0 day): 0.03%
- Total impurities ([1]; 0 day): 0.89%
- Impurity content RRT0.55 ([1]; 5 days): 0.03%
- Impurity content RRT0.66 ([1]; 5 days): 0.22%
- Impurity content RRT0.71 ([1]; 5 days): 0.15%
- Impurity content RRT0.94 ([1]; 5 days): 0.03%
- Impurity content RRT1.02 ([1]; 5 days): 0.27%
- Impurity content RRT1.06 ([1]; 5 days): 0.05%
- Impurity content RRT1.08 ([1]; 5 days): 0.24%
- Impurity content RRT1.15 ([1]; 5 days): 0.03%
- Total impurities ([1]; 5 days): 1.03%
- Impurity content RRT0.55 ([1]; 11 days): 0.04%
- Impurity content RRT0.66 ([1]; 11 days): 0.22%
- Impurity content RRT0.71 ([1]; 11 days): 0.13%
- Impurity content RRT0.94 ([1]; 11 days): 0.03%
- Impurity content RRT1.02 ([1]; 11 days): 0.30%
- Impurity content RRT1.06 ([1]; 11 days): 0.06%
- Impurity content RRT1.08 ([1]; 11 days): 0.29%
- Impurity content RRT1.15 ([1]; 11 days): 0.03%
- Total impurities ([1]; 11 days): 1.10%
- Impurity content RRT0.55 ([1]; 32 days): 0.04%
- Impurity content RRT0.66 ([1]; 32 days): 0.26%
- Impurity content RRT0.71 ([1]; 32 days): 0.14%
- Impurity content RRT0.94 ([1]; 32 days): 0.05%
- Impurity content RRT1.02 ([1]; 32 days): 0.40%
- Impurity content RRT1.06 ([1]; 32 days): 0.05%
- Impurity content RRT1.08 ([1]; 32 days): 0.40%
- Impurity content RRT1.15 ([1]; 32 days): 0.05%
- Total impurities ([1]; 32 days): 1.40%
